In patent US10857201B2, “NNIF and nNIF-related peptides and related methods” (UNIVERSITY OF UTAH RESEARCH FOUNDATION, priority 2016, dated 2020):

Columns and labels:
previously-formed NETs = assay: Post-treatment of previously formed NETs (dismantling); type: cell-based, human; conditions: agent added after LPS stimulation; nNIF, CRISPP 1 nM; DNase 3.78 U/mL
Description: FIG. 4A is a series of images depicting neutrophils isolated from venous blood of healthy adults that were incubated in medium alone (Control) or activated with LPS (100 ng/mL). CRISPP (1 nM) was added at 0, 30, or 60 minutes after LPS, and the presence of NETs was assessed by live cell imaging as in FIG. 1A after an additional 1 hour of incubation (20× magnification; scale bar=100 μm). The images are representative of three separate experiments.
For selected experiments, primary PMNs were pre-incubated with autologous plasma, cord blood plasma, nNIF (0.2-70 nM), CRISPP (0.2-70 nM), nNIF-SCR (1 nM), or CRISPP-SCR (1 nM) for one hour prior to stimulation. After pre-incubation and/or stimulation, PMNs were gently washed with PBS and incubated with a mixture of cell permeable (SYTO® Green, MOLECULAR PROBES®) and impermeable (SYTOX® Orange, MOLECULAR PROBES®) DNA fluorescent dyes. Confocal microscopy was accomplished using a FV1000 IX81 confocal microscope and FLUOVIEW™ software (OLYMPUS™). Both 20× and 60× objectives were used. Z-series images were obtained at a step size of 1 μm over a range of 20 μm for each field. FLUOVIEW™ and ADOBE™ PHOTOSHOP™ CS2 software was used for image processing.

PMN phagocytosis = assay: Phagocytosis of fluorescently labeled E. coli bioparticles; type: cell-based, human; conditions: 4 hour incubation, peptides 1 nM
Description: FIG. 6C is a graph depicting phagocytosis of fluorescently-labeled E. coli bioparticles that were measured by microscopy after a 4 hour incubation. Treatment with cytochalasin B and D served as a control for inhibition of phagocytosis. Student's t test, *P<0.05.
PMNs were isolated from blood of healthy adult donors and resuspended in M-199 at a concentration of 2×10^6 cells/mL. Leukocytes were pre-incubated for 60 minutes under standard conditions with cytochalasin D and B (10 μM), nNIF (1 nM), CRISPP (1 nM), or CRISPP-SCR (1 nM). Following pre-incubation, PMNs were incubated with 6×10^6 E. coli bioparticles (MOLECULAR PROBES®) on a rotator for 4 hours at 37° C. in 5% […] air. The PMNs were then washed and resuspended in the starting volume of M-199 before being spun down onto glass coverslips and fixed with 2% p-FA for 10 minutes and permeabilized with 0.1% Triton-X-100 for 10 minutes. Leukocytes were stained with WGA 555 (INVITROGEN™) and TO-PRO®-3 (MOLECULAR PROBES®), and randomly selected high-power visual field images were captured using confocal microscopy. IMAGEJ™ software (NIH) was used to determine the percentage of PMNs that were positive for fluorescently labeled E. coli bioparticles detected at 488 nm.

[1] = tested on: NET formation in E. coli peritonitis; assay: Mouse model of E. coli peritonitis (in vivo NET formation); conditions: for NET formation by peritoneal fluid PMNs / deployment of NETs on the peritoneal surface / number of PMNs in peritoneal fluid: C57BL/6 mice, 3 hours; for NET formation by peritoneal fluid PMNs / deployment of NETs on the peritoneal surface: 10 mg/kg i.p. 1 hour before E. coli i.p.; for number of PMNs in peritoneal fluid: E. coli i.p.; for peritoneal NET formation: Swiss Webster mice infected with E. coli
Excerpt: FIG. 8A depicts results of peritoneal fluid NET formation (red fluorescence, yellow arrow) assessed by live cell imaging (60× magnification, scale bar=50 μm) and histone H3 release (red dashed line=baseline arbitrarily set at 1). Three mice per group. One way ANOVA with Tukey's post hoc testing, ***P<0.001 for CRISPP and nNIF versus CRISPP-SCR.
FIG. 8B depicts results of NET formation on the surfaces of peritoneal membranes (red fluorescence, yellow arrows) that was quantified by counting the number of NETs that crossed standardized grid lines in […] (60× magnification; scale bar=50 μm) using IMAGEJ™ software. A second experiment yielded a similar pattern. FIGS. 8A and 8B depict C57BL/6 mice that were not pretreated or pretreated with nNIF, CRISPP, or CRISPP-SCR (10 mg/kg i.p.; 1 hour) and were inoculated with E. coli (4.5×10^7 bacteria i.p.). After 3 hours, the animals were sacrificed, and peritoneal fluid (FIG. 8A) and membranes (FIG. 8B) were collected for analysis.
FIG. 8C depicts C57BL/6 mice that were not pretreated (left two bars) or that were pretreated with CRISPP, nNIF, or CRISPP-SCR, and that were inoculated with E. coli i.p. as in FIGS. 8A and 8B. Neutrophil numbers in peritoneal fluid were counted after 3 hours (3-5 mice/group). […]
FIG. 8E depicts peritoneal fluid NET formation, imaged and measured as in FIG. 8A (10 mice/group). *P<0.05 for CRISPP/E. coli and nNIF/E. coli compared to CRISPP-SCR/E. coli and E. coli.
FIG. 8F depicts NET formation on peritoneal membrane surfaces, imaged and quantitated as in FIG. 8B (3 mice in each group). *P<0.05 for E. coli versus control (red dashed line); **P<0.01 for CRISPP-SCR/E. coli versus control; †P<0.05 for CRISPP/E. coli and nNIF/E. coli versus CRISPP-SCR/E. coli. One way ANOVA with Tukey's post-hoc testing applied in FIGS. 8E and 8F. In FIGS. 8E and 8F, Swiss-Webster mice that were not pretreated or that were pretreated with nNIF, CRISPP, or CRISPP-SCR were inoculated with E. coli i.p. as in FIGS. 8A and 8B. After 3 hours, peritoneal fluid and membranes were collected. FIGS. 8A-8F indicate that nNIF and CRISPP inhibit in vivo NET formation.
C57/BL6 or Swiss-Webster mice were pretreated in blinded fashion with CRISPP (10 mg/kg), nNIF (10 mg/kg), or CRISPP-SCR (10 mg/kg) by i.p. injection 1 hour prior to infection (E. coli, 4.5×10^7 cfu/mouse, i.p.) or inoculation (LPS, 25 mg/kg, i.p.) (SIGMA-ALDRICH®). Control mice were injected with saline alone. The mice were sacrificed in a CO2 chamber 3 hours post-infection/inoculation, and the peritoneal fluid and membrane samples were harvested. Briefly, the abdomen was disinfected and opened in the midline without injuring the muscle. The peritoneal cavity was lavaged with sterile saline solution (1 mL) and analyzed for in vivo NET formation, bacteriology, and leukocyte accumulation. NETs in the peritoneal fluid were qualitatively and quantitatively analyzed using live cell imaging with confocal microscopy and NET-associated histone H3 release assays. NETs on the serosal surface of the peritoneal membrane were assessed quantitatively using live cell imaging, followed by standardized grid analysis of five randomly selected high-power visual fields per tissue sample (IMAGEJ™ software, NIH). Peritoneal bacterial colony forming unit (cfu) counts were quantified by permeabilizing all recovered leukocytes with 0.1% Triton X-100 for 10 minutes and performing serial dilutions and bacterial cultures on 5% sheep blood agar plates (HARDY DIAGNOSTICS™). After a 24-hour incubation, bacterial counts were determined. Total leukocyte counts in the peritoneal lavage were determined in Neubauer chambers using an optical microscope after dilution in Turk's solution (2% acetic acid). Differential leukocyte analysis was performed using a 60× oil immersion objective to assess morphology of cyto-centrifuged cells stained with May-Gruenwald-Giemsa dye. All mice were included in the final analysis.

Substance: KFNKPFVFLMIEQNTKSPLFMGKVVNPTQ (listed as Homo sapiens) [nNIF]
- degradation or dismantling of previously-formed NETs (previously-formed NETs): do not degrade or dismantle
- phagocytosis (PMN phagocytosis): did not inhibit
- NET formation by peritoneal fluid PMNs [1]: inhibited
- deployment of NETs on the peritoneal surface [1]: inhibited
- number of PMNs in peritoneal fluid [1]: trend was to greater numbers
- peritoneal NET formation [1]: inhibited

Substance: M_IPPEVKFNKPFVFLMIDQNTKVPLFMGK [CRISPP, consensus peptide based on factors present in the blood of patients with cancer]
- degradation or dismantling of previously-formed NETs (previously-formed NETs): do not degrade or dismantle
- phagocytosis (PMN phagocytosis): did not inhibit
- NET formation by peritoneal fluid PMNs [1]: inhibited
- deployment of NETs on the peritoneal surface [1]: inhibited
- number of PMNs in peritoneal fluid [1]: greater
- peritoneal NET formation [1]: inhibited
